Article PMC6571685, “Rippled β-Sheet Formation by an Amyloid-β Fragment Indicates Expanded Scope of Sequence Space for Enantiomeric β-Sheet Peptide Coassembly” (Molecules, 2019)
Square brackets hold non-standard residues; d marks the D form. Peptide text beside a SMILES is read from it.

Tests used:
Assay type in all cases: physicochemical
[1] = Transmission electron microscopy of assemblies, fibril widths; conditions: assembled 21 days in PBS pH 7.4, 5% DMSO, 37 °C, washed with water, uranyl acetate stain; ImageJ, averages from 100–150 measurements
Description: Dried, disaggregated peptide aliquots were prepared for assembly as in sedimentation assays, but in larger volumes (greater than or equal to 5 mL) and were allowed to assemble for 21 days so as to allow for complete assembly of all samples. Following assembly, samples were centrifuged at 4300 × g for 90 min at 17 °C to collect aggregates. The supernatant was then carefully removed and deionized water added, mixed, and centrifugation repeated to wash. After first wash, supernatant was again removed and deionized water added and mixed, at which point samples were spotted for TEM or SEM if desired (below). Centrifugation was repeated once more and supernatant removed, and then samples were frozen and lyophilized. Lyophilized pellets were then placed on the solid-state stage of a Shimadzu FTIR-8400S (Shimadzu Corporation, Nakagyo-ku, Kyoto, Japan) spectrometer and analyzed at a resolution of 4 cm^−1.
Fibrils for the TEM images reported were obtained from the same samples that were used for FTIR, above, at the same timepoint. […] TEM images were recorded on a Hitachi 7650 transmission electron microscope in high contrast mode with an accelerating voltage of 80 kV. Fibril widths were measured in ImageJ and are reported as averages from 100–150 measurements.

[2] = Visual observation of precipitate after dilution into PBS; conditions: 110 μM total peptide, DMSO stock diluted into PBS pH 7.4, 5% v/v DMSO
Description: (§1) The self-assembly of L- and D-Ac-KLVFFAE-NH2 peptides was compared to the assembly properties of an equimolar mixture of the enantiomers. The peptides were prepared via standard Fmoc solid phase peptide synthesis, purified by reverse-phase HPLC, and characterized by MALDI-TOF mass spectrometry (see Materials and Methods section for experimental details and Supplementary Materials for characterization and purity data). Prior to self-assembly, peptides were disaggregated by sequential treatment with trifluoroacetic acid and hexafluoroisopropanol using a modified Wetzel protocol; peptide concentrations were determined by comparison to standard analytical HPLC curves (see Supplementary Materials for details), as described previously for studies with Aβ(16–22). Disaggregated, lyophilized peptides were then dissolved in DMSO and diluted into phosphate-buffered saline (pH 7.4) to reach total peptide concentrations of 110 μM (55 μM of each L- and D-enantiomer for mixed coassembly studies) (final DMSO concentration was 5% v/v). Upon dilution, peptides were incubated at 37 °C for assembly.

[3] = HPLC sedimentation assay (modified Wetzel protocol) of peptide self-assembly / coassembly
Description: as §1
Comparison of self-assembly and coassembly of Aβ(16–22) was conducted by a time-dependent sedimentation analysis. For these studies, we adapted Wetzel’s HPLC sedimentation protocol that we have previously used to assess Aβ(16–22) self-assembly. Aliquots of self-assembly and coassembly mixtures were removed over time and subjected to ultracentrifugation to remove fibrils and […] order aggregates after which the concentration of unaggregated peptide was quantified. In these analyses, equilibrium between monomer and fibril is eventually reached, with the final monomer concentration, or critical concentration (Cr), providing a quantitative characterization of the dynamic equilibrium between fibrils of length n and monomer with fibrils of length n + 1. […]
Sedimentation assays were performed using a modified Wetzel protocol. […] These solutions were then analyzed by analytical HPLC for correlation to a concentration curve to determine remaining monomer concentration.

Compound: CC(=O)N[C@H](CCCCN)C(=O)N[C@H](CC(C)C)C(=O)N[C@@H](C(=O)N[C@H](Cc1ccccc1)C(=O)N[C@H](Cc1ccccc1)C(=O)N[C@H](C)C(=O)N[C@H](CCC(=O)O)C(N)=O)C(C)C [D-Aβ(16–22), D-Ac-KLVFFAE-NH2] (Ac-[dK][dL][dV][dF][dF][dA][dE]-NH2)
- width of assemblies (TEM) [1]: 11.8 ± 0.5 nm

Compound: CC(=O)N[C@@H](CCCCN)C(=O)N[C@@H](CC(C)C)C(=O)N[C@H](C(=O)N[C@@H](Cc1ccccc1)C(=O)N[C@@H](Cc1ccccc1)C(=O)N[C@@H](C)C(=O)N[C@@H](CCC(=O)O)C(N)=O)C(C)C [L-Aβ(16–22), Ac-KLVFFAE-NH2] (Ac-KLVFFAE-NH2)
- width of assemblies (TEM) [1]: 11.8 ± 0.5 nm

Compound: Ac-KLVFFAE-NH2 [single enantiomer Aβ(16–22), self-assembled single enantiomer Aβ(16–22) sample (L- or D-enantiomer alone), pleated β-sheet]
- visible precipitate immediately after gentle mixing [2]: not in the single enantiomer self-assembly controls
- critical concentration (Cr), final monomer concentration at equilibrium ([3]; 110 μM total peptide (55 μM each enantiomer in mixture), PBS pH 7.4, 5% v/v DMSO, 0.1% NaN3, 37 °C, up to 21 days, aliquots centrifuged 436,000 × g 1 h 4 °C, supernatant monomer by analytical HPLC): 24 ± 6 µM
- time to reach equilibrium (constant monomer concentration) ([3]; 110 μM total peptide, PBS pH 7.4, 5% DMSO, 37 °C, monomer by HPLC after ultracentrifugation): required over two weeks to reach a constant monomer concentration
- ΔG for addition of monomer to fibril at equilibrium ([3]; from Cr = 1/Ka, PBS pH 7.4, 5% DMSO, 37 °C, 110 μM total peptide): -6.6 ± 0.2 kcal/mol
